In patent US5516790A, “Synthesis and application of alkyl-substituted dibenzofurans as antitumorigenic agents” (Texas A&M University System Technology Licensing Office, priority 1994, dated 1996):

Legend:
[1] = tested on: female rat uterus; assay: Antiestrogenic effect on uterine wet weight, immature female Sprague-Dawley rats (Example 8); assay type: in vivo
[2] = tested on: estrogen receptor (ER); assay: Uterine estrogen receptor levels, hydroxyapatite assay (Example 8); assay type: in vivo, female Sprague-Dawley rats
Experimental: A second group of animals was similarly treated with corn oil, TCDD, MCDF, or TCDD plus MCDF, all administered in corn oil at 10 ml/kg and terminated 72 hours later.
(§1) The animals were terminated by cervical dislocation. Livers were perfused with ice-cold TEDG buffer (10 mM Tris-HCl, 1.5 mM EDTA-4Na, 1 mM dithiothreitol, 10% glycerol (v/v), pH 7.4). Following perfusion in situ, livers were removed, weighed, and homogenized in ice-cold TEDG buffer. Uteri were also removed, weighed, and homogenized in ice-cold buffer. The homogenates were then centrifuged at 800×g ([…]) for 15 minutes and the nuclear pellets were stored at -80° C. The supernatants were further centrifuged at 180,000× g for 1.5 hours. The cytosolic supernatant was also stored at -80° C. Estrogen and progesterone receptor levels were determined within 7 days.
(§2) Estrogen (ER) and progesterone (PR) receptor levels were determined by the hydroxyapatite assay as described by Clark et al. (J. Steroid Biochem. 16:323-328, 1982) and incorporated herein by reference. […] Following the incubations, samples were counted and specific binding was calculated by subtraction of nonspecific from total binding. Assuming one steroid molecule binds to one estrogen/progesterone receptor, the number of moles of receptor can be calculated given the specific activity of the radioligand. The data presented in Tables 1 through 6 are means ± SD using at least four animals per treatment group. Significant differences were determined by analysis of variance.

[3] = tested on: progesterone receptor (PR); assay: Uterine progesterone receptor levels, hydroxyapatite assay (Example 8); assay type: in vivo, female Sprague-Dawley rats
Experimental: as §1, §2

[4] = Table 3: 50 μmol/kg + E-2 (2 × 10 μg/rat)
[5] = Table 3: compound alone, 50 μmol/kg (17β-estradiol: 2 × 10 μg/rat)
[6] = 150 μmol/kg + E-2 (2 × 10 μg/rat), run A
[7] = compound alone, 150 μmol/kg (17β-estradiol: 2 × 10 μg/rat), run A
[8] = 150 μmol/kg + E-2 (2 × 10 μg/rat), run B
[9] = compound alone, 150 μmol/kg (17β-estradiol: 2 × 10 μg/rat), run B

Compound | Uterine Wet Weight [1, 4] | Uterine Wet Weight [1, 5] | Estrogen Receptor Levels, Cytosolic [2, 4] | Estrogen Receptor Levels, Nuclear [2, 4] | Estrogen Receptor Levels, Cytosolic [2, 5] | Estrogen Receptor Levels, Nuclear [2, 5] | Progesterone Receptor Levels, Cytosolic [3, 4] | Progesterone Receptor Levels, Nuclear [3, 4] | Progesterone Receptor Levels, Cytosolic [3, 5] | Progesterone Receptor Levels, Nuclear [3, 5] | other results
Cc1cc2c(cc1Br)oc1cc(Br)c(Br)cc12 | 0.259 ± 0.020 % body wt | 0.153 ± 0.003 % body wt | 133.3 ± 6.7 fmol/mg protein | 80.0 ± 4.8 fmol/mg protein | 128.2 ± 7.7 fmol/mg protein | 64.3 ± 4.6 fmol/mg protein | 505 ± 35 fmol/mg protein | 221 ± 15 fmol/mg protein | 362 ± 22 fmol/mg protein | 270 ± 16 fmol/mg protein | –
Cc1cc2c(cc1Cl)oc1cc(Cl)c(Cl)cc12 | 0.237 ± 0.007 % body wt | 0.138 ± 0.026 % body wt | 85.7 ± 4.3 fmol/mg protein | 25.7 ± 1.3 fmol/mg protein | 113.9 ± 5.7 fmol/mg protein | 47.8 ± 2.4 fmol/mg protein | 607 ± 36 fmol/mg protein | 204 ± 12 fmol/mg protein | 554 ± 33 fmol/mg protein | 177 ± 11 fmol/mg protein | –
Clc1cc(Cl)c2c(c1)oc1c(Cl)cc(Cl)cc12 [1,3,6,8-tetraCDF] | – | – | – | – | – | – | – | – | – | – | Uterine Wet Weight [1, 6]: 0.187 ± 0.020 % body wt; Uterine Wet Weight [1, 7]: 0.123 ± 0.004 % body wt; Estrogen Receptor Levels, Cytosolic [2, 6]: 75.5 ± 17.3 fmol/mg protein; Estrogen Receptor Levels, Nuclear [2, 6]: 16.1 ± 2.3 fmol/mg protein; Estrogen Receptor Levels, Cytosolic [2, 7]: 55.2 ± 5.6 fmol/mg protein; Estrogen Receptor Levels, Nuclear [2, 7]: 18.5 ± 3.8 fmol/mg protein; Progesterone Receptor Levels, Cytosolic [3, 6]: 798 ± 83 fmol/mg protein; Progesterone Receptor Levels, Nuclear [3, 6]: 291 ± 71 fmol/mg protein; Progesterone Receptor Levels, Cytosolic [3, 7]: 571 ± 49 fmol/mg protein; Progesterone Receptor Levels, Nuclear [3, 7]: 199 ± 46 fmol/mg protein
CCc1cc(Cl)cc2c1oc1cc(Cl)cc(Cl)c12 [6-Ethyl-1,3,8-triCDF] | – | – | – | – | – | – | – | – | – | – | Uterine Wet Weight [1, 8]: 0.226 ± 0.013 % body wt; Uterine Wet Weight [1, 9]: 0.128 ± 0.007 % body wt; Estrogen Receptor Levels, Cytosolic [2, 8]: 104.3 ± 77.1 fmol/mg protein; Estrogen Receptor Levels, Nuclear [2, 8]: 34.9 ± 1.8 fmol/mg protein; Estrogen Receptor Levels, Cytosolic [2, 9]: 98.4 ± 5.5 fmol/mg protein; Estrogen Receptor Levels, Nuclear [2, 9]: 33.9 ± 1.7 fmol/mg protein; Progesterone Receptor Levels, Cytosolic [3, 8]: 1601 ± 121 fmol/mg protein; Progesterone Receptor Levels, Nuclear [3, 8]: 277 ± 19 fmol/mg protein; Progesterone Receptor Levels, Cytosolic [3, 9]: 688 ± 49 fmol/mg protein; Progesterone Receptor Levels, Nuclear [3, 9]: 243 ± 17 fmol/mg protein
